Common to all, as to assay type: functional
The subject of one experiment is Citrobacter freundii. Put plainly: Antimicrobial activity against Citrobacter freundii obtained from patient with complicated intra-abdominal infection assessed as percent susceptible isolates by agar dilution method.
A further experiment deals with Klebsiella aerogenes. Nature of the experiment: Antimicrobial activity against Enterobacter aerogenes obtained from patient with complicated intra-abdominal infection assessed as percent susceptible isolates by agar dilution method. Background: In agar dilution, organisms are placed on agar that contains the substance at set levels.
The test system of experiment [1] is Escherichia coli. Nature of the experiment: Antimicrobial activity against extended-spectrum beta-lactamase-positive Escherichia coli obtained from patient with complicated intra-abdominal infection assessed as percent susceptible isolates by agar dilution method.
For experiment [2], the system named is Klebsiella pneumoniae. Nature of the experiment: Antimicrobial activity against Klebsiella pneumoniae assessed as percent susceptible isolates by agar dilution method.
Experiment [3] deals with Klebsiella pneumoniae. Nature of the experiment: Antimicrobial activity against extended-spectrum beta-lactamase-positive Klebsiella pneumoniae assessed as percent susceptible isolates by agar dilution method.
Experiment [4] concerns Klebsiella pneumoniae. Put plainly: Antimicrobial activity against extended-spectrum beta-lactamase-negative Klebsiella pneumoniae assessed as percent susceptible isolates by agar dilution method.
The next experiment concerns Klebsiella oxytoca. Nature of the experiment: Antimicrobial activity against extended-spectrum beta-lactamase-positive Klebsiella oxytoca assessed as percent susceptible isolates by agar dilution method.
Another experiment deals with Proteus mirabilis. Put plainly: Antimicrobial activity against extended-spectrum beta-lactamase-positive Proteus mirabilis assessed as percent susceptible isolates by agar dilution method.
A further experiment concerns Pseudomonas aeruginosa. Nature of the experiment: Antimicrobial activity against Pseudomonas aeruginosa assessed as percent susceptible isolates by agar dilution method.
Another experiment deals with Serratia marcescens. Nature of the experiment: Antimicrobial activity against Serratia marcescens assessed as percent susceptible isolates by agar dilution method.
In a further experiment the test system is Pasteurella sp. Put plainly: Antimicrobial activity against Pasteurella sp. assessed as percent susceptible isolates by agar dilution method.
A further experiment has as its system Pseudomonas fluorescens. Put plainly: Antimicrobial activity against Pseudomonas fluorescens assessed as percent susceptible isolates by agar dilution method.
In experiment [5] the test system is Stenotrophomonas maltophilia. Put plainly: Antimicrobial activity against Stenotrophomonas maltophilia assessed as percent susceptible isolates by agar dilution method.
Another experiment relates to Acinetobacter sp. Put plainly: Antimicrobial activity against Acinetobacter sp. assessed as percent susceptible isolates by agar dilution method.
Experiment [6] concerns Escherichia coli. Put plainly: Antimicrobial activity against extended-spectrum beta-lactamase-negative Escherichia coli obtained from patient with complicated intra-abdominal infection assessed as percent susceptible isolates by agar dilution method.
The next experiment has as its system Enterobacter cloacae. Put plainly: Antimicrobial activity against Enterobacter cloacae obtained from patient with complicated intra-abdominal infection assessed as percent susceptible isolates by agar dilution method.
Experiment [7] concerns Escherichia coli. Nature of the experiment: Antimicrobial activity against Escherichia coli obtained from patient with complicated intra-abdominal infection assessed as percent susceptible isolates by agar dilution method.

Take `CO/N=C(\C(=O)N[C@@H]1C(=O)N2C(C(=O)[O-])=C(C[N+]3(C)CCCC3)CS[C@H]12)c1csc(N)n1`: the Activity in the experiment on Citrobacter freundii was found to be 94%; with Klebsiella aerogenes, 100%; in the experiment on Escherichia coli [1], 48%; in the experiment on Klebsiella pneumoniae [2] it was 91%; in the experiment on Klebsiella pneumoniae [3], 47%; in the experiment with Klebsiella pneumoniae [4], 100%. Besides, the Activity in the experiment with Klebsiella oxytoca was determined as 96%; in the experiment with Proteus mirabilis it was 100%; in the experiment with Pseudomonas aeruginosa, 72%; with Serratia marcescens, 100%; in the experiment on Pasteurella sp., 23%; in the experiment with Pseudomonas fluorescens, 23%. The Activity (in experiment [5]; in the experiment on Acinetobacter sp.) was 23% throughout.

Regarding `O=C(O)c1cn(C2CC2)c2cc(N3CCNCC3)c(F)cc2c1=O` [CIPROFLOXACIN], the Activity is 72% with Citrobacter freundii; 96% with Klebsiella aerogenes; 33% in the experiment on Escherichia coli [1]; 82% in the experiment on Escherichia coli [6]; 80% with Klebsiella pneumoniae [2]; 19% in the experiment on Klebsiella pneumoniae [3]. The Activity in the experiment with Klebsiella oxytoca was found to be 96%; in the experiment on Proteus mirabilis, 97%; in the experiment with Serratia marcescens, 93%; with Pasteurella sp., 15%; in the experiment with Pseudomonas fluorescens, 15%; in experiment [5], 15%. Moreover, in the experiment on Acinetobacter sp., the Activity was found to be 15%.

With `CO[C@@]1(NC(=O)Cc2cccs2)C(=O)N2C(C(=O)O)=C(COC(N)=O)CS[C@@H]21` [CEFOXITIN], the Activity amounted to 17% in the experiment on Citrobacter freundii; 8% with Klebsiella aerogenes; 1% in the experiment on Enterobacter cloacae; 93% in the experiment with Escherichia coli [7]; 71% in the experiment with Escherichia coli [1]; 94% with Escherichia coli [6]. The Activity in the experiment with Klebsiella pneumoniae [2] is recorded as 84%; in the experiment with Klebsiella pneumoniae [3], 66%; in the experiment with Klebsiella pneumoniae [4], 87%; with Klebsiella oxytoca, 96%; in the experiment on Proteus mirabilis, 100%; in the experiment with Serratia marcescens it was 26%.

Take `C[C@H]1COc2c(N3CCN(C)CC3)c(F)cc3c(=O)c(C(=O)O)cn1c23.C[C@H]1COc2c(N3CCN(C)CC3)c(F)cc3c(=O)c(C(=O)O)cn1c23.O` [LEVOFLOXACIN]: the Activity with Citrobacter freundii is 78%; with Klebsiella aerogenes, 96%; in the experiment with Enterobacter cloacae, 88%; in the experiment on Escherichia coli [7], 81%; in the experiment with Escherichia coli [1] it was 33%; in the experiment with Escherichia coli [6], 83%. Also, the Activity in the experiment on Klebsiella pneumoniae [2] stood at 84%; in the experiment on Klebsiella pneumoniae [3] it was 28%; in the experiment with Klebsiella pneumoniae [4], 96%; with Klebsiella oxytoca, 100%; in the experiment on Proteus mirabilis, 100%; in the experiment on Pseudomonas aeruginosa, 72%. Further, the Activity is 93% with Serratia marcescens; 47% with Pasteurella sp.; 47% in the experiment with Pseudomonas fluorescens; 47% in [5]; 47% with Acinetobacter sp..

`C[C@@H](O)[C@H]1C(=O)N2C(C(=O)O)=C(S[C@@H]3CN[C@H](C(=O)Nc4cccc(C(=O)O)c4)C3)[C@H](C)[C@H]12`: the Activity with Citrobacter freundii turned out to be 94%; in the experiment with Klebsiella aerogenes it was 100%; in the experiment with Enterobacter cloacae, 92%; in the experiment with Escherichia coli [7], 99%; with Escherichia coli [1], 100%; in the experiment on Escherichia coli [6], 99%. In addition, the Activity in the experiment on Klebsiella pneumoniae [2] came to 96%; in the experiment with Klebsiella pneumoniae [3], 78%; with Klebsiella pneumoniae [4] it was 100%; in the experiment with Klebsiella oxytoca it was 100%; with Proteus mirabilis, 100%; in the experiment on Serratia marcescens, 100%.

The values above are taken from ChEMBL document CHEMBL1629692, “Susceptibility of gram-negative pathogens isolated from patients with complicated intra-abdominal infections in the United States, 2007-2008: results of the Study for Monitoring Antimicrobial Resistance Trends (SMART)” (2010).
